One may read the IC50 as the point on the concentration scale where inhibition reaches its midpoint. Higher therefore signals weaker potency in that assay.

This is an account of results in ChEMBL document CHEMBL1154559, “New bisindole alkaloids of the topsentin and hamacanthin classes from the Mediterranean marine sponge Rhaphisia lacazei” (J Nat Prod, 2000).

A short description of the test: Cytotoxicity against human NSCLC-N6 cells by colorimetric assay. The test is classed as functional, cell-based.

Values after ≈ are worked out from the molar mass of the structure shown.

`O=C(c1nc(-c2c[nH]c3cc(Br)ccc23)c[nH]1)c1c[nH]c2cc(O)ccc12` [BROMOTOPSENTIN] showed an IC50 of 6.3 µg/mL (≈ 15 µM). Next, `O=C(c1nc(-c2c[nH]c3ccccc23)c[nH]1)c1c[nH]c2cc(O)ccc12` [TOPSENTIN]: 12 µg/mL (≈ 35.1 µM).
